Reference: ChEMBL document CHEMBL4020799, “Design, synthesis of novel furan appended benzothiazepine derivatives and in vitro biological evaluation as potent VRV-PL-8a and H+/K+ ATPase inhibitors” (Bioorg Med Chem Lett, 2017)
Active and inactive are the calls of the source. The calls are words filed in the database; no cut-off is given here.

Columns and labels:
[1] = Inhibition of hydrogen potassium ATPase in pig stomach mucosal membrane assessed as reduction in liberated inorganic phosphate level after 15 mins by colorimetric method; format: cell membranes, Sus scrofa
[2] = biological target: T1, Basic phospholipase A2 VRV-PL-VIIIa (Daboia russelii, UniProt P59071); experiment: (§1) Inhibition of Vipera russelii sPLA2 pre-incubated for 5 mins before DMPC substrate addition and measured after 45 mins
T1 sequence (P59071 whole entry): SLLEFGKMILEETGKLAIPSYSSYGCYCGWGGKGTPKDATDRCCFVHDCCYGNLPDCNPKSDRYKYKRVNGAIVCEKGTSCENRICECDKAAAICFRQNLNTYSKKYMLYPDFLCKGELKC

[3] = biological target: T2, Basic phospholipase A2 VRV-PL-VIIIa (Daboia russelii) (UniProt P59071); experiment: as §1
T2 sequence (whole entry): T1 sequence (P59071 whole entry)

[4] = biological target: T2, Basic phospholipase A2 VRV-PL-VIIIa (Daboia russelii); experiment: Inhibition of Vipera russelii venom sPLA2 at 11.01 uM in presence of fixed concentrations of DMPC substrate and 0 to 12 uM of calcium measured after 5 mins
[5] = biological target: T2, Basic phospholipase A2 VRV-PL-VIIIa (Daboia russelii); experiment: Inhibition of Vipera russelii venom sPLA2 assessed as remaining enzyme activity level at 11.01 uM in presence of fixed concentration of calcium and 400 uM of DMPC substrate measured after 5 mins
[6] = biological target: T2, Basic phospholipase A2 VRV-PL-VIIIa (Daboia russelii); experiment: Inhibition of Vipera russelii venom sPLA2-induced hemolytic activity in human erythrocytes assessed as reduction hemoglobin release in presence of egg yolk preincubated for 5 mins followed by erythrocyte addition by spectrophotometric analysis; format: cell-based
[7] = biological target: T2, Basic phospholipase A2 VRV-PL-VIIIa (Daboia russelii); experiment: Inhibition of Vipera russelii venom sPLA2 at 11.01 uM in presence of fixed concentration of calcium and 0 to 400 uM of DMPC substrate measured after 5 mins

SMILES	IC50 [1]	IC50 [2]	inhibition [3]	inhibition [4]	Activity [5]	inhibition [6]	inhibition [7]
Clc1ccc(C2CC(c3ccco3)=Nc3ccccc3S2)cc1 (stereo not drawn)	5.28 µM	19.3 µM	Dose-dependent effect	–	–	–	–
c1ccc(C2CC(c3ccco3)=Nc3ccccc3S2)cc1 (stereo not drawn)	8.01 µM	12 µM	Dose-dependent effect	–	–	–	–
Brc1ccc(C2CC(c3ccco3)=Nc3ccccc3S2)cc1 (stereo not drawn)	2.11 µM	24.1 µM	Dose-dependent effect	–	–	–	–
COc1ccc(C2CC(c3ccco3)=Nc3ccccc3S2)cc1 (stereo not drawn)	1.99 µM	11 µM	Dose-dependent effect	Active	51%	Dose-dependent effect	Active
O=[N+]([O-])c1ccc(C2CC(c3ccco3)=Nc3ccccc3S2)cc1 (stereo not drawn)	3.73 µM	56.9 µM	Dose-dependent effect	–	–	–	–
COc1cc(C2CC(c3ccco3)=Nc3ccccc3S2)ccc1O (stereo not drawn)	4.39 µM	43.4 µM	Dose-dependent effect	–	–	–	–
Fc1ccc(C2CC(c3ccco3)=Nc3ccccc3S2)cc1 (stereo not drawn)	5.1 µM	25.2 µM	Dose-dependent effect	–	–	–	–
c1coc(C2=Nc3ccccc3SC(c3ccc4c(c3)OCO4)C2)c1 (stereo not drawn)	5.14 µM	25.1 µM	Dose-dependent effect	–	–	–	–
